Test results: US5776900A, “Hemoregulatory peptides” (SmithKline Beecham Corporation, priority 1995, dated 1998)
Where no end group is shown, it is not given here. [ ]: non-standard residue; d: D form. pGlu = O=C1CC[C@@H](C(=O)O)N1

Test system: human bone marrow stromal cell line, C6
Test: Induction of colony stimulating activity by stromal cells; CSA of supernatant read in soft agar assay (CFU-C)
Type: cell-based
Details: 5% C6 supernatant, Lewis rat bone marrow cells
Procedure: Induction of Colony Stimulating Activity by Stromal Cells
The human bone marrow stromal cell line, C6, is grown to confluency in plastic tissue culture dishes in RPMI-1640 medium and 5% FBS. On the day prior to the experiment this medium is changed to DMEM without added serum. To these cultures, the compounds are added for one hour, then washed from the cultures. The medium is replaced with fresh DMEM and the cells are incubated for 24 hours at 37° C., 5% CO2. After 24 hours the C6 cell culture supernatant is collected, sterile filtered, and frozen until it can be assayed for the presence of hematopoietic colony stimulating activity (CSA) as set forth below.
Bone marrow cells are obtained from Lewis rats. They are adjusted to 10^6 cells/ml in DMEM without serum. A single layer agar system utilizing the following is used: DMEM enriched with nutrients (NaHCO3, pyruvate, amino acids, vitamins, and HEPES buffer); 0.3% Bacto agar, and 20% Lewis rat serum. To this are added dilutions of C6 cell line supernatant (10-2.5%) from above along with rat bone marrow cells (final concentration=10^5 cells/ml). The agar plates are incubated at 37° C., 5% CO2 for 7-8 days. Colonies of proliferating bone marrow cells (CFU-C) are counted utilizing a microscope. The number of agar colonies counted is proportional to the amount of CSA present within the C6 bone marrow stromal cell line supernatant.

(pGlu-Glu-Asp)2 -Sub-(Lys)2 ([pGlu]ED[Sub]K; not fully specified; printed as (pGlu-Glu-Asp)2 -Sub-(Lys)2; also: dimer via suberoyl-lysine linker) [Example 2]
Hematopoietic Colony Stimulating Activity Using 5% Supernatant, Percent of Control (dose 0.01 ng/ml): 97% of Control
Hematopoietic Colony Stimulating Activity Using 5% Supernatant, Percent of Control (dose 0.1 ng/ml): 154% of Control
Hematopoietic Colony Stimulating Activity Using 5% Supernatant, Percent of Control (dose 1 ng/ml): 188% of Control
Hematopoietic Colony Stimulating Activity Using 5% Supernatant, Percent of Control (dose 10 ng/ml): 207% of Control
Hematopoietic Colony Stimulating Activity Using 5% Supernatant, Percent of Control (dose 100 ng/ml): 241% of Control
Hematopoietic Colony Stimulating Activity Using 5% Supernatant, Percent of Control (dose 1000 ng/ml): 192% of Control
